Values after ≈ are worked out from the molar mass of the structure shown.
Legend:
[1] = Antiinflammatory activity in FMLP/CB-induced human neutrophils assessed as inhibition of elastase release; format: functional, cell-based; conditions: Neutrophil
[2] = Antiinflammatory activity in FMLP/CB-induced human neutrophils assessed as inhibition of superoxide anion generation relative to control; format: functional, Neutrophil
[3] = Antiinflammatory activity in FMLP/CB-induced human neutrophils assessed as inhibition of superoxide anion generation; format: functional, cell-based; conditions: Neutrophil
[4] = Antiinflammatory activity in FMLP/CB-induced human neutrophils assessed as inhibition of elastase release relative to control; format: functional, Neutrophil

IC50 [1] [µg/mL]	IC50 [3] [µg/mL]	Compound	inhibition (INH) [2] [%]	inhibition (INH) [4] [%]
> 10	> 10	CCOC(=O)CC(=O)c1nccc2c1[nH]c1ccccc12	10.48	3.06
> 10	> 10	COc1cc(=O)n2c3ccccc3c3ccnc1c32	29.5	8.2

Compound	IC50 [1] [µg/mL]	IC50 [3] [µg/mL]	inhibition (INH) [2] [%]	inhibition (INH) [4] [%]
CCOC(=O)c1nccc2c1[nH]c1ccccc12	6.29 (≈ 26.2 µM)	4.87 (≈ 20.3 µM)	93.92	70.75
